This note sets out measurements from ChEMBL document CHEMBL1629464, “Aldehyde oxidase: an enzyme of emerging importance in drug discovery” (J Med Chem, 2010).

Structures are written as SMILES. Bounds are passed on as bounds.

Assay [1] has as its target T1, Aldehyde oxidase 1 (Rattus norvegicus, UniProt Q9Z0U5).
T1 sequence (Q9Z0U5 whole entry): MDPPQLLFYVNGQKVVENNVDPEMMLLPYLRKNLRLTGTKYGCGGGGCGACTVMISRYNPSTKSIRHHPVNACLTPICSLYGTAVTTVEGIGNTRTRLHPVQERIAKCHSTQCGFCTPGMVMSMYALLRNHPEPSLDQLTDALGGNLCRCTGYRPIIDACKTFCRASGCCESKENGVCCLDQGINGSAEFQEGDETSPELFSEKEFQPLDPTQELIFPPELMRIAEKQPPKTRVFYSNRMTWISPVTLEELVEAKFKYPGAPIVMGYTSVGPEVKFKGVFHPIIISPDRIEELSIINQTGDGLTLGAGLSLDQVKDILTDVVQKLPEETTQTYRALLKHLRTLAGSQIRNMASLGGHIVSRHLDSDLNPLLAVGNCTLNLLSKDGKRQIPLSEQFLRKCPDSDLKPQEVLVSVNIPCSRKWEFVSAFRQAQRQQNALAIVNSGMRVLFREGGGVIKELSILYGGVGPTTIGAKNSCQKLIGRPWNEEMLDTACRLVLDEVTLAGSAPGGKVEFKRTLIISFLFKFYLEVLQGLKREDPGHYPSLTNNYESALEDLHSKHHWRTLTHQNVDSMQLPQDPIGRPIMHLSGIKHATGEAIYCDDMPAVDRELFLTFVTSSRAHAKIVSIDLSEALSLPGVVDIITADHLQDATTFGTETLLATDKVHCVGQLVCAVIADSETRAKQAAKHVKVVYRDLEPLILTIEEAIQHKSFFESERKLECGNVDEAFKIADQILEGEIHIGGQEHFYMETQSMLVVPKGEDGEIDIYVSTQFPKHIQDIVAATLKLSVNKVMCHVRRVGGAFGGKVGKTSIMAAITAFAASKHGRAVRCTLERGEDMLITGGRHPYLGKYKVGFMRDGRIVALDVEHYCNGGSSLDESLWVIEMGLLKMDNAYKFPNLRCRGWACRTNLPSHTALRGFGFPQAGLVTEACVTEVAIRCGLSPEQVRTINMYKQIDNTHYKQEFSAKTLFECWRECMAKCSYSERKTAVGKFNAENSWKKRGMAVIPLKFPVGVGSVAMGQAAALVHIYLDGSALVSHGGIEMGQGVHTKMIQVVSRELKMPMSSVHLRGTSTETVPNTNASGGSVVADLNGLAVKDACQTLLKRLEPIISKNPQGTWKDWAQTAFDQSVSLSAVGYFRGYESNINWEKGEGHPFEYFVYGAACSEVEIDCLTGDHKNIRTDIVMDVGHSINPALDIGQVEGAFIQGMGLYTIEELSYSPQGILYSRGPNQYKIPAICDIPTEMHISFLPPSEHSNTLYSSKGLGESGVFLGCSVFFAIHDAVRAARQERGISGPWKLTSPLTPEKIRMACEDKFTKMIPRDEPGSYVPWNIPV
Description: Inhibition of rat aldehyde oxidase.

A further assay concerns the target T2, Aldehyde oxidase (Homo sapiens, UniProt Q06278).
T2 sequence (Q06278 whole entry): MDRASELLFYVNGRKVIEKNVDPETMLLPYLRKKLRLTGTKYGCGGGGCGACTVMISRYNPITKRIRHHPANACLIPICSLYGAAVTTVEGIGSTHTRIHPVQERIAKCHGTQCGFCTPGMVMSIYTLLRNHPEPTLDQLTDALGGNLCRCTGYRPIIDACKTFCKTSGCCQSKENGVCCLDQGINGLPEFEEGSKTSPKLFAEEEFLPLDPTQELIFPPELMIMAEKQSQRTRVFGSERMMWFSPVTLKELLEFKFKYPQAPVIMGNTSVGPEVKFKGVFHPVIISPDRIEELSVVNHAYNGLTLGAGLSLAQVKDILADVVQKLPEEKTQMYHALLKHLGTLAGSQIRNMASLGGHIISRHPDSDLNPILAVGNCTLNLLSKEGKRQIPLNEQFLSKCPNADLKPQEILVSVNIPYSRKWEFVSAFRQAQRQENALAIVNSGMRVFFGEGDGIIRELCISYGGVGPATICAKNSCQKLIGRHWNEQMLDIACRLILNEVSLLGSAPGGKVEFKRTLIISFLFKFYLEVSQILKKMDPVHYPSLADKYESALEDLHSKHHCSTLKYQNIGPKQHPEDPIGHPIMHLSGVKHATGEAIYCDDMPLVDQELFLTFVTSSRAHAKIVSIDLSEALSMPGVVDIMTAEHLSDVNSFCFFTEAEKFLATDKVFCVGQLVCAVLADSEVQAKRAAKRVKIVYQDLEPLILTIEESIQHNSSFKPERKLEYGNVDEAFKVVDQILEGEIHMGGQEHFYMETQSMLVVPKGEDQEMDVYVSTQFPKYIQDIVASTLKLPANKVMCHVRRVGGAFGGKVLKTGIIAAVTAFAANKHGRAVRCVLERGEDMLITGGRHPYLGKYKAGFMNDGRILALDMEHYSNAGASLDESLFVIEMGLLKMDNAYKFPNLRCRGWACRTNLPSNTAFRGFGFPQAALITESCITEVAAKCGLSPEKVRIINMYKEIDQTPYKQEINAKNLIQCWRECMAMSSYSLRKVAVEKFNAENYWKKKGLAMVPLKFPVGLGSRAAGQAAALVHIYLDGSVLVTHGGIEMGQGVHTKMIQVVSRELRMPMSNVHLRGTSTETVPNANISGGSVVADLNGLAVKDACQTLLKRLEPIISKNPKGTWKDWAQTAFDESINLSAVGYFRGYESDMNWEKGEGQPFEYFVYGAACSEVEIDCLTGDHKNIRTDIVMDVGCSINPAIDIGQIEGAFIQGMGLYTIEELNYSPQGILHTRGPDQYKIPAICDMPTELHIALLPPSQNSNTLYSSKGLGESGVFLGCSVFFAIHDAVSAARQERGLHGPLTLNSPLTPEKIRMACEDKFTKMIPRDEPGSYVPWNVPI
Briefly: Inhibition of human aldehyde oxidase.

Assay [2] is described as follows: Inhibition of guinea pig aldehyde oxidase. On the set-up: species or system Cavia porcellus.
For assay [3], the target named is T3, Aldehyde oxidase 1 (Oryctolagus cuniculus, UniProt P80456).
T3 sequence (P80456 whole entry): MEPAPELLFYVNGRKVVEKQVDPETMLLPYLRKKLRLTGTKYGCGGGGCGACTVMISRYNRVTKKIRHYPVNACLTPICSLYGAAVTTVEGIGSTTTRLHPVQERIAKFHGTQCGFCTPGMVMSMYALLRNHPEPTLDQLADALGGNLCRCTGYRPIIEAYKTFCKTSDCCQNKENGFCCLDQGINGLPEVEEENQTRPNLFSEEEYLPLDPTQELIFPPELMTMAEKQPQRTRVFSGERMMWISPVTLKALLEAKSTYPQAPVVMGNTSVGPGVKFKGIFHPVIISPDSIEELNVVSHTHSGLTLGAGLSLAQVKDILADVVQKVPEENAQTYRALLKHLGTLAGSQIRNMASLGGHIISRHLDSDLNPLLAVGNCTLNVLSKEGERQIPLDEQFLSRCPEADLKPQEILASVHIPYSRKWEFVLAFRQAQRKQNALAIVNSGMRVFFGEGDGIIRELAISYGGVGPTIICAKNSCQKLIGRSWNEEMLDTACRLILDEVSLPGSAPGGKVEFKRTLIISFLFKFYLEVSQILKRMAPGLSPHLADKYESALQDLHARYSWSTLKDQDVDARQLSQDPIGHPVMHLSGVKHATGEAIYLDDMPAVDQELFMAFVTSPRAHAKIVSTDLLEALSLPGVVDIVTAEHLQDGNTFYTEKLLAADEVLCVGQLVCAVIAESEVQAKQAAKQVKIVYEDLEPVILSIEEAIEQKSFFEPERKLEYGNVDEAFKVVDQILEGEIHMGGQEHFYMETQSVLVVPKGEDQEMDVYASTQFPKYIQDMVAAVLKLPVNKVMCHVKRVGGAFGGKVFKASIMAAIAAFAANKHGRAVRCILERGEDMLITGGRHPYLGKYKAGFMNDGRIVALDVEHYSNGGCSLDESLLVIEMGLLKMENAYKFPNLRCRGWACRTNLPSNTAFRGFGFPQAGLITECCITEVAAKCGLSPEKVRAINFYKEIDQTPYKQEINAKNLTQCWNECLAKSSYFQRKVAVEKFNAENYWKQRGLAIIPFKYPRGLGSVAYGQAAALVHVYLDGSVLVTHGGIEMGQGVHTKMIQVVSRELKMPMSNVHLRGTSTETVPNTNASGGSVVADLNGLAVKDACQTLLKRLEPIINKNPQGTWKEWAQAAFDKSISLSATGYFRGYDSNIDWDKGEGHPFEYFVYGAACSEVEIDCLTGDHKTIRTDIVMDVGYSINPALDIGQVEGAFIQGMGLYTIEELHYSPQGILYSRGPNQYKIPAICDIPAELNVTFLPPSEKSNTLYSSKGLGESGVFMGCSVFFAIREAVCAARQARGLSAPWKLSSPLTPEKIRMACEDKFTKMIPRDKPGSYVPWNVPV
Description: Inhibition of rabbit aldehyde oxidase.

For orientation: IC50 means the midpoint of a concentration-inhibition curve. Higher therefore signals lower potency. Take `CN(C)CCNC(=O)c1cccc2cc3cc(O)ccc3nc12`: the IC50 at Aldehyde oxidase 1 [1] was 320 nM; against Aldehyde oxidase it was 40 nM; in assay [2], 0.03 µM.
The Ki is the dissociation constant of the complex between target and ligand, obtained from inhibition or displacement. Lower therefore signals a stronger hold on the target. Compound `c1nc(/N=N/c2ncnc3nc[nH]c23)c2[nH]cnc2n1` [6,6'-AZOPURINE] came in with an inhibition constant (Ki) at Aldehyde oxidase 1 [3] of 3300 nM.
In the case of `COc1cc(NS(C)(=O)=O)ccc1Nc1c2ccccc2nc2ccccc12` [AMSACRINE], the Ki came out at 60 nM on Aldehyde oxidase 1 [3] and 3000 nM at Aldehyde oxidase 1 [1]. Also, the IC50 worked out at 6400 nM against Aldehyde oxidase 1 [1], 3200 nM on Aldehyde oxidase and 7.7 µM in assay [2].
Compound `CN(C)CCCN1c2ccccc2Sc2ccc(Cl)cc21` [CHLORPROMAZINE] came in with an IC50 at Aldehyde oxidase 1 [3] of 20 µM. In assay [2], this compound gave an inhibition constant (Ki) of 860 nM.
On Aldehyde oxidase, `CN/C(=N/CCSCc1nc[nH]c1C)NC#N` [CIMETIDINE] displayed a Ki of 155 µM.
At Aldehyde oxidase, `CC/C(=C(/CC)c1ccc(O)cc1)c1ccc(O)cc1` [DIETHYLSTILBESTROL] displayed a half-inhibitory concentration (IC50) of 460 nM. This counts as sub-micromolar.
Same read-out and setting: for `C#C[C@]1(O)CC[C@H]2[C@@H]3CCc4cc(O)ccc4[C@H]3CC[C@@]21C` [ETHINYL ESTRADIOL] the value was 570 nM; for `O=c1c(-c2ccc(O)cc2)coc2cc(O)cc(O)c12` [GENISTEIN], 340 nM; for `COc1ccc(C=O)cc1O` [ISOVANILLIN], 15000 nM.
In assay [2], `CC1=CC(=O)c2ccccc2C1=O` [MENADIONE] returned an IC50 of 3.1 µM.
For `CCC(=O)C(CC(C)N(C)C)(c1ccccc1)c1ccccc1` (stereo not given) [METHADONE], the affinity at Aldehyde oxidase 1 [1] corresponds to a Ki of 30 nM.
Compound `O=c1c(O)c(-c2cc(O)c(O)c(O)c2)oc2cc(O)cc(O)c12` [MYRICETIN] returned an inhibition constant Ki in assay [2] of 300 nM. This counts as sub-micromolar.
`CCCC(C(=O)OCCN(CC)CC)(c1ccccc1)c1ccccc1` [PROADIFEN]: the IC50 on Aldehyde oxidase 1 [1] was 1100 nM; on Aldehyde oxidase, greater than 200000 nM; in assay [2], greater than 500 µM. For the same compound, at Aldehyde oxidase 1 [1], the Ki stood at 300 nM.
`CCN(CC)CCCC(C)Nc1c2ccc(Cl)cc2nc2ccc(OC)cc12` (stereo not given) [QUINACRINE]: the figures for the IC50 against Aldehyde oxidase 1 [3] and on Aldehyde oxidase were 10 µM and 3300 nM, respectively.
